Data as given in paper PMC7066280 (Investigational New Drugs, 2019).
Where two headings read alike, the source gives them in different places.

Legend:
[1] = Ivosidenib plasma PK after single and multiple 500 mg QD doses (dose expansion); format: in vivo, human; conditions: human, plasma, oral, 500 mg
Method: (§1) Additional predose samples were taken on cycle 1, day 8; cycle 1, day 15; cycle 3, day 1; and end of treatment.
(§2) Plasma ivosidenib was measured using two validated liquid chromatography-tandem mass spectrometry (LC-MS/MS) methods. The lower limit of quantification (LLOQ) was 1.00 ng/mL (low-range assay) or 50.0 ng/mL (high-range assay). […] Plasma 2-HG concentrations were measured using a qualified LC-MS/MS method with an LLOQ of 30.0 ng/mL. Concentrations of 2-HG in tumor biopsy samples were quantified using qualified LC-MS/MS methods with an LLOQ of 7.5 μg/g for brain tumor homogenate, 100 ng/g for liver tumor homogenate (low-range assay), and 30 μg/g for liver tumor homogenate (high-range assay). Plasma 4β-OHC and cholesterol were measured using a validated LC-MS/MS method. The LLOQ was 5 ng/mL for 4β-OHC and 25 μg/mL for cholesterol in human plasma.
(§3) PK parameters included area under the plasma concentration-time curve (AUC), maximum plasma concentration (Cmax), time to maximum plasma concentration (Tmax), terminal elimination half-life (t1/2), and apparent oral clearance at steady state (CLss/F). Accumulation ratio (Racc), based on Cmax and AUC, was also assessed during the dose escalation portion. PD (2-HG) parameters included baseline-effect value, area under the effect concentration-time curve (AUEC0-10h for the dose escalation portion, or AUEC0-8h for the dose escalation and expansion portions), percent change from baseline in AUEC (%BAUEC0-10h for the escalation portion, or %BAUEC0-8h for the dose escalation and expansion portions), average plasma concentration (Cavg), and percent inhibition for Cavg (%BCavg). For the dose escalation portion, the time-matched ratios of 4β-OHC to cholesterol were calculated.

[2] = Dose proportionality assessment of AUC and Cmax (power model); format: in vivo, human
Method: Dose proportionality after multiple dosing was tested using data from the QD dose regimens without the 100 mg BID dose group. To assess dose proportionality, the confidence interval (CI) for the slope was estimated, with each natural logarithm (ln)-transformed PK parameter as the dependent variable and the ln-transformed dose as the fixed effect. Analysis was performed using PK parameter estimates at day −3, cycle 1, day 15, and cycle 2, day 1. Dose proportionality was concluded if the 95% CI around the slope included 1 and if the slope was between 0.8 and 1.2 (inclusive).

plasma 2-HG = assay: Plasma 2-HG pharmacodynamics in patients with IDH1-mutant tumors; format: in vivo, human
Method: These samples were optional for any further patients enrolled in these cohorts. Further blood samples were collected from all patients up to 10 h postdose on cycle 1, day 15 and cycle 2, day 1. A subset of samples was also used for evaluation of plasma 4β-hydroxycholesterol (4β-OHC) and 4β-OHC:cholesterol ratios. Blood samples for assessment of 2-HG only were also collected at screening.
as §1, §2, §3

[3] = design: method as in Agios data on file; conditions: ref Agios data on file; cited from earlier work

SMILES: N#Cc1ccnc(N2C(=O)CC[C@H]2C(=O)N(c2cncc(F)c2)[C@H](C(=O)NC2CC(F)(F)C2)c2ccccc2Cl)c1 [ivosidenib]
- Tmax ([1]; expansion cholangiocarcinoma, cycle 1 day 1, median (minimum; maximum)): 3.08 h
- Cmax ([1]; expansion cholangiocarcinoma, cycle 2 day 1, geometric mean (geometric CV%)): 4.58 µg/mL
- AUC(0-t) ([1]; expansion cholangiocarcinoma, cycle 2 day 1, geometric mean (geometric CV%), read-out: AUC0-8hr): 29 µg·h/mL
- AUC(0-t) ([1]; expansion cholangiocarcinoma, cycle 2 day 1, geometric mean (geometric CV%), read-out: AUC0-24hr): 75.6 µg·h/mL
- Tmax ([1]; expansion cholangiocarcinoma, cycle 2 day 1, median (minimum; maximum)): 2.03 h
- Cmax ([1]; expansion chondrosarcoma, cycle 1 day 1, geometric mean (geometric CV%)): 4.26 µg/mL
- AUC(0-t) ([1]; expansion chondrosarcoma, cycle 1 day 1, geometric mean (geometric CV%), read-out: AUC0-8hr): 22.9 µg·h/mL
- Tmax ([1]; expansion chondrosarcoma, cycle 1 day 1, median (minimum; maximum)): 2.98 h
- Cmax ([1]; expansion chondrosarcoma, cycle 2 day 1, geometric mean (geometric CV%)): 5.3 µg/mL
- AUC(0-t) ([1]; expansion chondrosarcoma, cycle 2 day 1, geometric mean (geometric CV%), read-out: AUC0-8hr): 36.2 µg·h/mL
- AUC(0-t) ([1]; expansion chondrosarcoma, cycle 2 day 1, geometric mean (geometric CV%), read-out: AUC0-24hr): 88.7 µg·h/mL
- Tmax ([1]; expansion chondrosarcoma, cycle 2 day 1, median (minimum; maximum)): 2.08 h
- Cmax ([1]; expansion enhancing glioma, cycle 1 day 1, geometric mean (geometric CV%)): 3.14 µg/mL
- AUC(0-t) ([1]; expansion enhancing glioma, cycle 1 day 1, geometric mean (geometric CV%), read-out: AUC0-8hr): 16 µg·h/mL
- Tmax ([1]; expansion enhancing glioma, cycle 1 day 1, median (minimum; maximum)): 3.01 h
- Cmax ([1]; expansion enhancing glioma, cycle 2 day 1, geometric mean (geometric CV%)): 3.8 µg/mL
- AUC(0-t) ([1]; expansion enhancing glioma, cycle 2 day 1, geometric mean (geometric CV%), read-out: AUC0-8hr): 24.4 µg·h/mL
- AUC(0-t) ([1]; expansion enhancing glioma, cycle 2 day 1, geometric mean (geometric CV%), read-out: AUC0-24hr): 62.6 µg·h/mL
- Tmax ([1]; expansion enhancing glioma, cycle 2 day 1, median (minimum; maximum)): 2.03 h
- Cmax ([1]; expansion non-enhancing glioma, cycle 1 day 1, geometric mean (geometric CV%)): 2.79 µg/mL
- AUC(0-t) ([1]; expansion non-enhancing glioma, cycle 1 day 1, geometric mean (geometric CV%), read-out: AUC0-8hr): 14.9 µg·h/mL
- Tmax ([1]; expansion non-enhancing glioma, cycle 1 day 1, median (minimum; maximum)): 2.58 h
- Cmax ([1]; expansion non-enhancing glioma, cycle 2 day 1, geometric mean (geometric CV%)): 3.54 µg/mL
- AUC(0-t) ([1]; expansion non-enhancing glioma, cycle 2 day 1, geometric mean (geometric CV%), read-out: AUC0-8hr): 22.2 µg·h/mL
- AUC(0-t) ([1]; expansion non-enhancing glioma, cycle 2 day 1, geometric mean (geometric CV%), read-out: AUC0-24hr): 55.7 µg·h/mL
- Tmax ([1]; expansion non-enhancing glioma, cycle 2 day 1, median (minimum; maximum)): 3.05 h
- Cmax ([1]; expansion other solid tumors, cycle 1 day 1, geometric mean (geometric CV%)): 2.29 µg/mL
- AUC(0-t) ([1]; expansion other solid tumors, cycle 1 day 1, geometric mean (geometric CV%), read-out: AUC0-8hr): 13.8 µg·h/mL
- Tmax ([1]; expansion other solid tumors, cycle 1 day 1, median (minimum; maximum)): 2.55 h
- Cmax ([1]; expansion other solid tumors, cycle 2 day 1, geometric mean (geometric CV%)): 4.13 µg/mL
- AUC(0-t) ([1]; expansion other solid tumors, cycle 2 day 1, geometric mean (geometric CV%), read-out: AUC0-8hr): 25.1 µg·h/mL
- AUC(0-t) ([1]; expansion other solid tumors, cycle 2 day 1, geometric mean (geometric CV%), read-out: AUC0-24hr): 62.2 µg·h/mL
- Tmax ([1]; expansion other solid tumors, cycle 2 day 1, median (minimum; maximum)): 1.98 h
- Cmax ([1]; expansion overall, cycle 1 day 1, geometric mean (geometric CV%)): 3.31 µg/mL
- AUC(0-t) ([1]; expansion overall, cycle 1 day 1, geometric mean (geometric CV%), read-out: AUC0-8hr): 17.6 µg·h/mL
- Tmax ([1]; expansion overall, cycle 1 day 1, median (minimum; maximum)): 3 h
- Cmax ([1]; expansion overall, cycle 2 day 1, geometric mean (geometric CV%)): 4.21 µg/mL
- AUC(0-t) ([1]; expansion overall, cycle 2 day 1, geometric mean (geometric CV%), read-out: AUC0-8hr): 26.6 µg·h/mL
- AUC(0-t) ([1]; expansion overall, cycle 2 day 1, geometric mean (geometric CV%), read-out: AUC0-24hr): 68.5 µg·h/mL
- Tmax ([1]; expansion overall, cycle 2 day 1, median (minimum; maximum)): 2.14 h
- increase in ivosidenib exposure for a doubling of dose ([2]; patients with glioma): ~40%
- increase in ivosidenib exposure for a doubling of dose ([2]; patients with non-glioma solid tumors): ~70%
- plasma 2-HG reduction (plasma 2-HG; after multiple doses, patients with cholangiocarcinoma or chondrosarcoma): up to 98%
- plasma 2-HG inhibition compared with baseline (plasma 2-HG; after one week of continuous dosing, cholangiocarcinoma and chondrosarcoma): up to 98%
- plasma 2-HG mean Cavg percent inhibition (BCavg%) (plasma 2-HG; cholangiocarcinoma, 500 mg multiple dose, cycle 1 day 15): 79%
- plasma 2-HG mean Cavg percent inhibition (BCavg%) (plasma 2-HG; cholangiocarcinoma, 500 mg multiple dose, cycle 2 day 1): 80%
- plasma 2-HG mean Cavg percent inhibition (BCavg%) (plasma 2-HG; cholangiocarcinoma, single dose, 500 mg): 46%
- plasma 2-HG mean Cavg percent inhibition (BCavg%) (plasma 2-HG; chondrosarcoma, 500 mg multiple dose, cycle 1 day 15): 54%
- plasma 2-HG mean Cavg percent inhibition (BCavg%) (plasma 2-HG; chondrosarcoma, 500 mg multiple dose, cycle 2 day 1): 59%
- plasma 2-HG mean Cavg percent inhibition (BCavg%) (plasma 2-HG; chondrosarcoma, single dose, 500 mg): 30%
- FDA Biopharmaceutical Classification System class [3]: BCS Class II
- permeability (BCS) [3]: high permeability
- solubility (BCS) [3]: low solubility
